Values joined by “and” are separate entries in the source; they are usually repeats but may differ in a detail not shown here. Equal entries are not always repeated. Where two headings read alike, the source gives them in different places. Blank lines part the entries; values can stand above or below the compound they belong to.
Columns and labels:
[1] = rats, oral CrCl3 with NSAID; cited from earlier work
[2] = test system: diabetic KK mice; details: high-dose oral or parenteral; cited from earlier work
[3] = oral biotin intakes of up to 200 mg daily; cited from earlier work
[4] = test system: streptozotocin-diabetic rats; Otsuka Long-Evans Tokushima Fatty rats; details: high-dose oral or parenteral, cited from earlier work
[5] = test system: Type I and type 2 diabetics; details: cited from earlier work
[6] = test system: JCR rat; test: Intraperitoneal glucose tolerance test / glucose disposal in JCR rats; assay type: in vivo; details: for Glucose Disposal: individual rat, 12 weeks daily treatment via water; for Glucose Disposal, value per treatment group: mean per treatment, 12 weeks
Procedure: In order to test the effects of chromium and biotin, alone and in combination, on insulin sensitivity, a rodent model of “Syndrome X” was employed. Specifically, the JCR rat was utilized as it is a well-established model of obesity and insulin resistance.
After a baseline phase where accurate weights, body composition, and food intake were assessed, the animals were randomized to either control, CrPic alone, biotin alone, or CrPic/Biotin (See FIG. 5). Animals were weighed weekly and nutrients were given via daily water feeding at a specified dose/kg body weight. A 12-week period of daily treatment of animals was accomplished.
At specified time points during the study, glucose and insulin assessments were made. Specific assessments of carbohydrate metabolism were determined using an intraperitoneal glucose tolerance test and an insulin tolerance test. Animals were studied at 6 and 12 weeks with randomization. The specific metabolic testing was as follows:
Following baseline glucose and insulin measurements, 1.5 mg D50W per gram of body weight were given intraperitoneally. Tailsticks were initiated at 30, 60, 90, and 120 minutes following administration of glucose. The areas under curve for insulin and glucose were assessed. Eight animals in each group at 12 weeks were studied. Table 1 details the amount of glucose disposal for animals treated with CrPic and/or biotin at various dosages. Note, “L” represents the lean control; “O-contr” are the obese control rats; “LB” connotes low biotin treatments; “HB” represents high biotin treatments; “LC” and “HC” represent low and high doses of chromium, respectively. FIG. 6 is a graphic representation of the results of the IPGTT studies. […]

[7] = test system: JCR rat; test: Lipid levels in JCR rats (chromium picolinate + biotin animal study); assay type: in vivo; parameters: Cholesterol / HDL-ch: unit not given here
Procedure: In order to test the effects of chromium and biotin, alone and in combination, on insulin sensitivity, a rodent model of “Syndrome X” was employed. Specifically, the JCR rat was utilized as it is a well-established model of obesity and insulin resistance. […] After a baseline phase where accurate weights, body composition, and food intake were assessed, the animals were randomized to either control, CrPic alone, biotin alone, or CrPic/Biotin (See FIG. 5). Animals were weighed weekly and nutrients were given via daily water feeding at a specified dose/kg body weight. A 12-week period of daily treatment of animals was accomplished. […] Specifically, CrPic versus control solutions were given in hyperinsulinemic, insulin-resistant, obese JCR rats. The study was initiated on animals at approximately 4 months of age, and animals were treated specifically for three months. […] 9). […] The improvement in insulin sensitivity was associated with a reduction in total. cholesterol levels compared to lean animals (See, e.g., Table 2, and FIGS. 10 & 11). The effect of the combination of chromium and biotin on lipid levels in the animal study is detailed in Table 2. Specifically, the effect of chromium and biotin on cholesterol levels, high density lipid cholesterol (HDL-ch) levels, and triglyceride levels are recorded in Table 2.

[8] = test system: glycogen synthetase (GS) mRNA; test: Glycogen synthetase (GS) mRNA expression in HSMC; assay type: cell-based, human; details: CrPic 10 ng/ml, biotin 10 pm, FIG. 4B
Procedure: To evaluate the cellular mechanism by […] biotin enhance glycogen synthesis, glycogen synthetase (“GS”) mRNA and glycogen synthesis were assessed. HSMC was incubated with CrPic at 10 ng/ml, biotin at 10 pm, and both CrPic and biotin. […] When evaluating GS mRNA levels, chromium increased gene expression of GS by 26%, biotin by 15%, and the combination by 33%. […] RNA Preparation: Total RNA from the skeletal muscle biopsy was isolated using guanium […], phenol-chloroform extraction, and alcohol precipitation. RNA sample was quantified by spectrophotometer. The absorption ratio (260:280 nm) was between 1.8 to 2.0 for all preparations and the integrity of the RNA was verified on agarose gel colored with ethidium bromide. For RT-PCR, fresh isolated total RNA was used. GS mRNA Level Analysis: GS mRNA levels were analyzed using one-step RT-PCR kits (Clontech Laboratories, Inc., Palo Alto, Calif.). GS first-strand CDNA synthesis was performed from 1 μh of total RNA with 1×[…] plus enzyme mix in 40 mM Tricine, 20 mM Kcl, 3 mM MgCl2, 3.75 ug/ml BSA, 0.2 mM deoxynucleoside triphosphates, 400 pmol of oligo(dt) primer, and 200 pm GS primers (Sense [NT], antisense [NT]) in a final volume of 50 μl. The reaction mixtures were subjected to incubations for 60 min. at 50° C. in the Eppendorf Master gradient cycler (Westbury, N.Y.). […] The band densities were evaluated (Alpha Imager 2000, San Leandro, Calif.). […]

[9] = test system: human skeletal muscle culture (HSMC); test: Glucose uptake in human skeletal muscle culture; assay type: cell-based; details: FIG. 2
[10] = test system: JCR rat; test: Insulin tolerance test in obese JCR rats; assay type: in vivo; details: FIG. 9
Procedure: (§1) At specified time points during the study, glucose and insulin assessments were made. Specific assessments of carbohydrate metabolism were determined using an intraperitoneal glucose tolerance test and an insulin tolerance test. Animals were studied at 6 and 12 weeks with randomization. The specific metabolic testing was as follows: Following baseline glucose assessment, insulin (5 units per kg body weight) was given intravenously. Repeat glucose assessments occurred at 5, 15, and 30 minute intervals following insulin administration. The rate of glucose disappearance was measured. Again, eight animals in each group at 12 weeks were studied. […] Specifically, CrPic versus control solutions were given in hyperinsulinemic, insulin-resistant, obese JCR rats. The study was initiated on animals at approximately 4 months of age, and animals were treated specifically for three months. […] 9). […] The improvement in insulin sensitivity was associated with a reduction in total. cholesterol levels compared to lean animals (See, e.g., Table 2, and FIGS. 10 & 11). The effect of the combination of chromium and biotin on lipid levels in the animal study is detailed in Table 2. Specifically, the effect of chromium and biotin on cholesterol levels, high density lipid cholesterol (HDL-ch) levels, and triglyceride levels are recorded in Table 2.

[11] = test system: diabetic and obese pre-diabetic subjects; details: cited from earlier work
[12] = test system: JCR:LA-corpulent rat; details: obese, hyperinsulinemic, insulin resistant rodent model; cited from earlier work
[13] = test system: JCR rat; test: Fasting plasma insulin in obese JCR rats; assay type: in vivo; details: treated three months, end of study, FIG. 7
Procedure: as §1, with “randomization.” for “randomization. The specific metabolic testing was as follows: Following baseline glucose assessment, insulin (5 units per kg body weight) was given intravenously. Repeat glucose assessments occurred at 5, 15, and 30 minute intervals following insulin administration. The rate of glucose disappearance was measured. Again, eight animals in each group at 12 weeks were studied.”

[14] = Month 0, listed as High Chromium
[15] = Month 0, listed as Low Chromium
[16] = Month 1, listed as High Chromium
[17] = Month 1, listed as Low Chromium
[18] = Month 2, listed as High Chromium
[19] = Month 2, listed as Low Chromium
[20] = Month 3, listed as High Chromium
[21] = Month 3, listed as Low Chromium

Compound: CC(=O)Oc1ccccc1C(=O)O [aspirin]
- Chromium absorption [1]: facilitated

Compound: O=C(O)CCCC[C@@H]1SC[C@@H]2NC(=O)N[C@@H]21 [biotin]
- oral glucose tolerance [2]: improve oral glucose tolerance
- side effects or toxicities [3]: no side effects or toxicities
- oral glucose tolerance ([4]; pre-diabetic Otsuka Long-Evans Tokushima Fatty rats): improve oral glucose tolerance
- oral glucose tolerance ([4]; rats made diabetic with streptozotocin): improve oral glucose tolerance
- fasting plasma glucose levels ([5]; Type I diabetics, insulin temporarily discontinued, 16 mg daily oral): lowered fasting plasma glucose levels
- pancreatic beta cell function ([5]; poorly-controlled type 2 diabetics, 3 mg three times per day): improved
- Glucose Disposal ([6]; listed as HB): 1.92 mg/dL/min and 2.329 mg/dL/min and 1.879 mg/dL/min and 1.772 mg/dL/min and 1.993 mg/dL/min
- Glucose Disposal ([6]; listed as LB): 2.21 mg/dL/min and 2.392 mg/dL/min and 1.876 mg/dL/min and 1.768 mg/dL/min and 1.875 mg/dL/min
- Glucose Disposal, value per treatment group [6]: 2.0615 mg/dL/min
- Cholesterol ([7]; Month 0, listed as High Biotin): 106
- HDL-ch ([7]; Month 0, listed as High Biotin): 43.6
- Triglyceride ([7]; Month 0, listed as High Biotin): 289 mg/dL
- Cholesterol ([7]; Month 0, listed as Low Biotin): 111
- HDL-ch ([7]; Month 0, listed as Low Biotin): 47.8
- Triglyceride ([7]; Month 0, listed as Low Biotin): 317 mg/dL
- Cholesterol ([7]; Month 1, listed as High Biotin): 111
- HDL-ch ([7]; Month 1, listed as High Biotin): 42
- Triglyceride ([7]; Month 1, listed as High Biotin): 292 mg/dL
- Cholesterol ([7]; Month 1, listed as Low Biotin): 117
- HDL-ch ([7]; Month 1, listed as Low Biotin): 46.5
- Triglyceride ([7]; Month 1, listed as Low Biotin): 331 mg/dL
- Cholesterol ([7]; Month 2, listed as High Biotin): 130
- HDL-ch ([7]; Month 2, listed as High Biotin): 46.8
- Triglyceride ([7]; Month 2, listed as High Biotin): 294 mg/dL
- Cholesterol ([7]; Month 2, listed as Low Biotin): 122
- HDL-ch ([7]; Month 2, listed as Low Biotin): 45.8
- Triglyceride ([7]; Month 2, listed as Low Biotin): 272 mg/dL
- Cholesterol ([7]; Month 3, listed as High Biotin): 144
- HDL-ch ([7]; Month 3, listed as High Biotin): 46.9
- Triglyceride ([7]; Month 3, listed as High Biotin): 301 mg/dL
- Cholesterol ([7]; Month 3, listed as Low Biotin): 118
- HDL-ch ([7]; Month 3, listed as Low Biotin): 47.3
- Triglyceride ([7]; Month 3, listed as Low Biotin): 229 mg/dL
- increase of gene expression of GS (GS mRNA levels) [8]: 15%
- glucose uptake [9]: chromium alone enhances glucose uptake in contrast to biotin alone

- increase of gene expression of GS (GS mRNA levels) [8]: 26%
Compound: chromium picolinate [CrPic]
- Insulin sensitivity, insulin tolerance test [10]: significantly improved
- glucose levels ([11]; Chinese diabetics): significantly lowered
- insulin levels ([11]; Chinese diabetics): significantly lowered
- insulin sensitivity ([11]; obese, pre-diabetic subjects, 1000 μg per day): enhance insulin sensitivity
- insulin sensitivity [12]: very robust effect on improving
- lipid profiles [12]: very robust effect on improving
- fasting plasma insulin [13]: significantly lower fasting plasma insulin
- Glucose Disposal ([6]; listed as HC): 2.928 mg/dL/min and 3.25 mg/dL/min and 3.224 mg/dL/min and 3.011 mg/dL/min and 2.821 mg/dL/min
- Glucose Disposal ([6]; listed as LC): 2.334 mg/dL/min and 2.109 mg/dL/min and 2.066 mg/dL/min
- Glucose Disposal, value per treatment group [6]: 2.928 mg/dL/min
- glucose response to intraperitoneal glucose tolerance test ([6]; obese JCR rats, FIG. 8A): significantly improved glucose response
- insulin response to intraperitoneal glucose tolerance test ([6]; obese rat, FIG. 8B): significantly lowered insulin response
- Cholesterol [7, 14]: 110
- HDL-ch [7, 14]: 43.1
- Triglyceride [7, 14]: 302 mg/dL
- Cholesterol [7, 15]: 109
- HDL-ch [7, 15]: 45.9
- Triglyceride [7, 15]: 319 mg/dL
- Cholesterol [7, 16]: 112
- HDL-ch [7, 16]: 43.2
- Triglyceride [7, 16]: 283 mg/dL
- Cholesterol [7, 17]: 93
- HDL-ch [7, 17]: 38.6
- Triglyceride [7, 17]: 267 mg/dL
- Cholesterol [7, 18]: 120
- HDL-ch [7, 18]: 51.5
- Triglyceride [7, 18]: 221 mg/dL
- Cholesterol [7, 19]: 130
- HDL-ch [7, 19]: 43.4
- Triglyceride [7, 19]: 256 mg/dL
- Cholesterol [7, 20]: 122
- HDL-ch [7, 20]: 48.1
- Triglyceride [7, 20]: 174 mg/dL
- Cholesterol [7, 21]: 137
- HDL-ch [7, 21]: 45.9
- Triglyceride [7, 21]: 242 mg/dL
- total cholesterol levels ([7]; obese JCR rats, FIGS. 10 & 11): reduction
- glucose uptake [9]: enhances glucose uptake
